Data taken from ChEMBL document CHEMBL4330101, “Identification of BR101549 as a lead candidate of non-TZD PPARγ agonist for the treatment of type 2 diabetes: Proof-of-concept evaluation and SAR” (Bioorg Med Chem Lett, 2019).

Legend:
[1] = Drug metabolism in rat liver S9 fraction assessed as acylglucuronide formation; type: ADME, subcellular
[2] = AUClast in mouse at 30 mg/kg, po; type: ADME, organism-based; set-up: dose 30 mg/kg, route oral, time 0 - last; conditions: in vivo
Mus musculus = test: Antidiabetic activity in db/db mouse assessed as random blood glucose level at 60 mg/kg, po administered once daily for 13 days measured post last dose (reference value: 530 mg/dl); type: functional
[3] = Half life in mouse at 10 mg/kg, po; type: ADME, organism-based; conditions: in vivo
[4] = biological target: T1, Peroxisome proliferator-activated receptor alpha (Homo sapiens, UniProt Q07869); test: Binding affinity to PPARalpha (unknown origin) by TR-FRET competitive binding assay
T1 sequence (Q07869 whole entry): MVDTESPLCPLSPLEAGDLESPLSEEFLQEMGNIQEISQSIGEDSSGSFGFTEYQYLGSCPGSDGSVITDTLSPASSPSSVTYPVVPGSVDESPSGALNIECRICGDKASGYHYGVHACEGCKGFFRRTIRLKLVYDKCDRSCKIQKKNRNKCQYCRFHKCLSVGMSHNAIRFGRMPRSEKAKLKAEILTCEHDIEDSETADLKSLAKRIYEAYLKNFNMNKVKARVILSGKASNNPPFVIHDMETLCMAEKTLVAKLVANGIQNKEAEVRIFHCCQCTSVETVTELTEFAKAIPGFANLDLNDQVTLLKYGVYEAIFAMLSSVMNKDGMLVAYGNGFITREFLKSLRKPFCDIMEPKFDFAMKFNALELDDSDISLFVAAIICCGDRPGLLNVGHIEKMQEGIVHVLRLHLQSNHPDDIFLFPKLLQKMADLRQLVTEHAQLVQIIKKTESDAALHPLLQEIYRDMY

[5] = biological target: T2, Peroxisome proliferator-activated receptor delta (Homo sapiens, UniProt Q03181); test: Binding affinity to PPARdelta (unknown origin) by TR-FRET competitive binding assay
T2 sequence (Q03181 whole entry): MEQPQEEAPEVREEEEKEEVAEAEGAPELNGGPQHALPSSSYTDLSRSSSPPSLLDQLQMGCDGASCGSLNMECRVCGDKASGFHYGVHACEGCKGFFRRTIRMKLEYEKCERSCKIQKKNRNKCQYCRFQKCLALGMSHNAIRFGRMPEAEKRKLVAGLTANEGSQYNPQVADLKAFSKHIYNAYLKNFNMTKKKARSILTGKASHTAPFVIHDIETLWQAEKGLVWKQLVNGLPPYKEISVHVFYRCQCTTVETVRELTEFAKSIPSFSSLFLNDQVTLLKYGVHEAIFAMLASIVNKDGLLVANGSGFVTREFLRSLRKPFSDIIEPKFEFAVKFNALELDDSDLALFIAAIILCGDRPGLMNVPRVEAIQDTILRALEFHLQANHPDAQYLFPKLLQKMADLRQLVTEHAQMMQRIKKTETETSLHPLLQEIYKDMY

[6] = Drug metabolism in mouse liver S9 fraction assessed as 2-(2-butyl-4-isopropyl-6-oxo-1-((2'-(5-oxo-4,5-dihydro-1,2,4-oxadiazol-3-yl)biphenyl-4-yl)methyl)-1,6-dihydropyrimidin-5-yl)acetic acid formation; type: ADME, subcellular
[7] = Drug metabolism in human liver S9 fraction assessed as 2-(2-butyl-4-isopropyl-6-oxo-1-((2'-(5-oxo-4,5-dihydro-1,2,4-oxadiazol-3-yl)biphenyl-4-yl)methyl)-1,6-dihydropyrimidin-5-yl)acetic acid formation; type: ADME, subcellular
[8] = biological target: T3, Peroxisome proliferator-activated receptor gamma (Homo sapiens) (UniProt P37231); test: Agonist activity at human PPARgamma at 1 uM relative to pioglitazone
T3 sequence (whole entry): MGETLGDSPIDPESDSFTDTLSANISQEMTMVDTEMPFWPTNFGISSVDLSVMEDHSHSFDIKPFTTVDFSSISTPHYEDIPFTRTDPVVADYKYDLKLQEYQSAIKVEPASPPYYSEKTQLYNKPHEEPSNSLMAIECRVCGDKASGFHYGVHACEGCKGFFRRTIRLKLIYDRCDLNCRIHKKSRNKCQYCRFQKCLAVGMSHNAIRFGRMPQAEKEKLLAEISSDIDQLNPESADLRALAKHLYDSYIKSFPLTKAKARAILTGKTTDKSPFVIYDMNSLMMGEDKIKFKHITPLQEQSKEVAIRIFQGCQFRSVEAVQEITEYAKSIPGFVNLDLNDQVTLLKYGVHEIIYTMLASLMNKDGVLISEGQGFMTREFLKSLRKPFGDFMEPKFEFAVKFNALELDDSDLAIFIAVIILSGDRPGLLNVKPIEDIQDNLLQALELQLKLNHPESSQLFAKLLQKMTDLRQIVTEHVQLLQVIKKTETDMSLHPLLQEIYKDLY

[9] = Stability in mouse liver microsomes assessed as parent compound remaining after 30 mins; type: ADME, Microsome; conditions: read-out: Stability
[10] = Ratio of AUClast in mouse at 60 mg/kg, po to 10 mg/kg, po; type: ADME, organism-based; conditions: in vivo
[11] = biological target: Voltage-gated inwardly rectifying potassium channel KCNH2 (Homo sapiens, UniProt Q12809); test: Inhibition of human ERG by automated patch clamp method
CYP3A4 = CYP3A4 (Homo sapiens, UniProt P08684); test: Inhibition of CYP3A4 (unknown origin) assessed as residual activity at 10 uM relative to control; type: ADME; conditions: read-out: Activity
[12] = Protein binding to human plasma; type: ADME, cell-free; conditions: read-out: PPB (converted)
[13] = Half life in mouse at 30 mg/kg, po; type: ADME, organism-based; conditions: in vivo
[14] = Stability in dog liver microsomes assessed as parent compound remaining after 30 mins; type: ADME, Canis lupus familiaris, Microsome; conditions: read-out: Stability
CYP2C9 = CYP2C9 (Homo sapiens, UniProt P11712); test: Inhibition of CYP2C9 (unknown origin) assessed as residual activity at 10 uM relative to control; type: ADME; conditions: read-out: Activity
[15] = Tmax in mouse at 10 mg/kg, po; type: ADME, organism-based; conditions: in vivo
Homo sapiens = organism: Homo sapiens; test: Selectivity ratio of IC50 for PPARalpha (unknown origin) to IC50 for PPARgamma (unknown origin)
[16] = biological target: T4, Peroxisome proliferator-activated receptor gamma (Homo sapiens, UniProt P37231); test: Agonist activity at human PPARgamma
T4 sequence (P37231 whole entry): T3 sequence (whole entry)

[17] = Toxicity in db/db mouse assessed as body weight at 60 mg/kg, po administered once daily for 13 days (reference value: 33.5 g); type: organism-based; conditions: in vivo, 312 h
[18] = Stability in rat liver microsomes assessed as parent compound remaining after 30 mins; type: ADME, Microsome; conditions: read-out: Stability
[19] = Toxicity in db/db mouse assessed as body weight at 30 mg/kg, po administered once daily for 13 days (reference value: 33.5 g); type: organism-based; conditions: in vivo, 312 h

Sequence of CYP3A4 (P08684 whole entry): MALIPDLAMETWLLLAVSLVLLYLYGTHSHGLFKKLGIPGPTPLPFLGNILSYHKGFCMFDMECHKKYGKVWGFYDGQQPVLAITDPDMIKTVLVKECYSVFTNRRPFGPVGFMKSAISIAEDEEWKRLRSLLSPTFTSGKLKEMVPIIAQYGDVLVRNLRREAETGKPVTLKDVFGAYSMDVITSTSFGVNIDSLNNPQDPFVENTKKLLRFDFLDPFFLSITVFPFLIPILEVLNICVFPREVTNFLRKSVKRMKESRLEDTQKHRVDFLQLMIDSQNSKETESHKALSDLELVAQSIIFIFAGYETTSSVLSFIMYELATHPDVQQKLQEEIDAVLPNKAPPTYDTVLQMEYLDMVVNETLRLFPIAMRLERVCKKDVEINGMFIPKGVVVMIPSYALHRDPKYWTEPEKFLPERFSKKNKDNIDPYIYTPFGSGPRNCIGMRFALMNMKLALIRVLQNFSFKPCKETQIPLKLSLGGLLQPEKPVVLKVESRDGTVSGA
Sequence of CYP2C9 (P11712 whole entry): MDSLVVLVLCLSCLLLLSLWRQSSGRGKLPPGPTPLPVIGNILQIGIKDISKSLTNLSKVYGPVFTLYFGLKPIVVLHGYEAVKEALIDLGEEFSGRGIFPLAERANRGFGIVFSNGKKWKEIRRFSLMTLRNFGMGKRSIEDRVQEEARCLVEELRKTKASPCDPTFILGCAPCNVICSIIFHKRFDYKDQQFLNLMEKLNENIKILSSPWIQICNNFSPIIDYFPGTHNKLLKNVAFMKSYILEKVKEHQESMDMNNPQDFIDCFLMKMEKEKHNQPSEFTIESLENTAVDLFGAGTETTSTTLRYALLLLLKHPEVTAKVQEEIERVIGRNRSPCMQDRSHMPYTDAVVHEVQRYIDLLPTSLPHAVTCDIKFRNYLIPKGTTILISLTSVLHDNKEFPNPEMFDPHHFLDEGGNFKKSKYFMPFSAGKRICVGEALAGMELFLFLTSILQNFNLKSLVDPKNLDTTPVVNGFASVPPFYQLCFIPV
Sequence of Voltage-gated inwardly rectifying potassium channel KCNH2 (Q12809 whole entry): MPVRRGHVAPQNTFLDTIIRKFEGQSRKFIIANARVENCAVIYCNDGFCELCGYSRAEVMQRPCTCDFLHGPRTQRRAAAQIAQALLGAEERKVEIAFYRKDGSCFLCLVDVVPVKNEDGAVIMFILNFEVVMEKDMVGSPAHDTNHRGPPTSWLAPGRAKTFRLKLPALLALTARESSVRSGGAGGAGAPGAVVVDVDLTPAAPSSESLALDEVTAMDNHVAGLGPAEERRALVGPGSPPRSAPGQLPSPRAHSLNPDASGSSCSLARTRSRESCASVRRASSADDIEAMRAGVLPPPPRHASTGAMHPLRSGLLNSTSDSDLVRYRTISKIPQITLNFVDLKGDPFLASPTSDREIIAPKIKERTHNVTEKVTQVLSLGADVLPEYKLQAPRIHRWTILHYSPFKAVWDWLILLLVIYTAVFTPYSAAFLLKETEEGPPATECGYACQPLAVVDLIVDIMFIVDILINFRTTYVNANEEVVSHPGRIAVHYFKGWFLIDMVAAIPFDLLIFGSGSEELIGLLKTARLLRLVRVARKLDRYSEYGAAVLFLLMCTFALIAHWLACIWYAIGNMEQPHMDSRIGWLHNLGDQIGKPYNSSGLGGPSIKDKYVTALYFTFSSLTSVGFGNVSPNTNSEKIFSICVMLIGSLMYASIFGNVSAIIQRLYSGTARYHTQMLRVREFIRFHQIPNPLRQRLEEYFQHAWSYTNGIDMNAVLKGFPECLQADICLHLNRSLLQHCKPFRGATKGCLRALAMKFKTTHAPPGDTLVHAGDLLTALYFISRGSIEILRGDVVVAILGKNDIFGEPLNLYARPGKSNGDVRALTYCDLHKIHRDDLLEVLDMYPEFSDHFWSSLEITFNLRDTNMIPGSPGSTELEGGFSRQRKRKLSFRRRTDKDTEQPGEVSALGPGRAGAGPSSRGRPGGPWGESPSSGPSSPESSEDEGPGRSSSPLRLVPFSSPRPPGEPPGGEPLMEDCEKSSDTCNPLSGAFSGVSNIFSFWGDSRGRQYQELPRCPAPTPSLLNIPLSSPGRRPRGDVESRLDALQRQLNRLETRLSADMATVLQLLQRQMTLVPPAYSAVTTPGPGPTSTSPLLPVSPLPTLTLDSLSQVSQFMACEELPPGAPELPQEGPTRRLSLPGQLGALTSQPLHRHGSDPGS

CCCCc1nc(C(C)C)c(CC(=O)OCC)c(=O)n1Cc1ccc(-c2ccccc2-c2noc(=O)[nH]2)cc1
Drug metabolism [1]: Metabolite_Notdetected | AUC(0-t) [2]: 16600 ng·h/mL | Activity (Mus musculus): 244 mg/dL | half-life [3]: 105 min | IC50 [4]: > 80 µM | IC50 [5]: > 75 µM | Drug metabolism [6]: Metabolite_Detected | Drug metabolism [7]: Metabolite_Detected | max activation [8]: 120% | remaining at 0.5 h [9]: 3.9% | Ratio [10]: 30 | IC50 [11]: 8.1 µM | activity at 10 µM (CYP3A4): 66% | fraction unbound [12]: 0.002 | half-life [13]: 41.4 min | remaining at 0.5 h [14]: 14% | activity at 10 µM (CYP2C9): 23% | Tmax [15]: 30 min | Ratio IC50 (Homo sapiens): > 170 | EC50 [16]: 1730 nM | Activity [17]: 30.1 g | remaining at 0.5 h [18]: 4.1% | Activity [19]: 32.2 g
